Laboratory results taken from patent US20240216462A1, “PHARMACEUTICAL COMPOSITION FOR ENHANCING IMMUNITY OR ANTI-CANCER ACTIVITY INCLUDING EXTRACT OF PSEUDOLYSIMACHION NAKAIANUM (OHWI) T.YAMAZ AS ACTIVE INGREDIENT” (KOREA INSTITUTE OF SCIENCE AND TECHNOLOGY, priority 2022, published 2024).

What was measured:
[1] = test system: CD4+ T cells induced to differentiate into Th17; test: Differentiation and functional enhancement activity of Th17 cells (IL-17 expression); type: cell-based, C57BL/6J mice; conditions: 25 μM final concentration; culture for 3 days under Th17 differentiation conditions; Veh control about 35%
Description: 8-week-old C57BL/6J mice were purchased and adapted for 1 week, and then CD4+ T cells were isolated from spleens and lymph nodes. Th17 cell differentiation was induced by media containing IL-6, TGF-beta1, IL-1beta, anti-IFN-gamma, and anti-IL-4, and through culturing for 3 days, it was confirmed that about 35% of IL-17 cytokine was expressed in a Veh group, which was a control group treated with only a solvent of the compound, thereby establishing basic conditions for the differentiation of Th17 cells. Under the conditions of differentiation of Th17 cells, each substance was treated at a final concentration of 25 μM.
As a result, as may be seen in the drawings, it was confirmed that Compounds 1 to 3 increased the IL-17 cytokine expression by 70%, 63%, and 62%, respectively, and through this, it was confirmed that the three compounds were able to improve the differentiation and function of Th17 cells.

[2] = test system: CD4+ T cells induced to differentiate into Treg; test: Differentiation and function of Treg cells (Foxp3 expression); type: cell-based, C57BL/6J mice; conditions: 25 μM final concentration; culture for 3 days in medium containing IL-2 and TGF-beta1; control about 19%
Experimental: • 8-week-old C57BL/6J mice were purchased and adapted for 1 week, and then CD4+ T cells were isolated from spleens and lymph nodes. Differentiation of regulatory T cells was transferred through a medium containing IL-2 and TGF-beta1, and through culture for 3 days, it was confirmed that about 19% of a Foxp3 transcription factor was expressed in the control group. Each substance was treated at a final concentration of 25 μM.

Row | SMILES | increased the IL-17 cytokine expression [1] | reduced the Foxp3 transcription factor expression [2]
1 | CO[C@@H]1C[C@H]2[C@H](OC(=O)c3ccc(O)c(O)c3)[C@@H]3O[C@]3(CO)[C@H]2C(O[C@@H]2O[C@H](CO)[C@@H](O)[C@H](O)[C@H]2O)O1 (stereo partly drawn) [Compound 1, veroninakaioside G] | 70% | 4.4%
2 | COc1cc(/C=C/C(=O)OC[C@H]2O[C@@H](OCCc3ccc(O)c(OC)c3)[C@H](O)[C@@H](O[C@@H]3O[C@H](CO)[C@@H](O)[C@H](O)[C@H]3O[C@@H]3O[C@H](CO)[C@@H](O)[C@H](O)[C@H]3O)[C@@H]2O)ccc1O [Compound 3, veroninakaioside H] | 62% | 6.6%
3 | COc1ccc(CCO[C@@H]2O[C@H](CO)[C@@H](OC(=O)/C=C/c3ccc(O)c(OC)c3)[C@H](O[C@@H]3O[C@H](CO)[C@@H](O)[C@H](O)[C@H]3O)[C@H]2O[C@@H]2O[C@H](CO)[C@@H](O)[C@H](O)[C@H]2O)cc1O [Compound 2, chionoside I] | 63% | 8.3%
